Here are results for 22 molecules from ChEMBL document CHEMBL1201862, “PubChem BioAssay data set” (2004).

One series has as its target Albumin (Bos taurus, UniProt P02769). Put plainly: Counterscreen for inhibitors of T-cell receptor (TCR)-CD3 interaction: Fluorescence-based biochemical high throughput dose response assay to identify inhibitors of T-cell receptor (TCR)-CD3 interaction using a TAMRA-labeled BSA probe. The series is classed as functional. In general terms: Counterscreens check selectivity or assay interference.

Series [1] is described as follows: Luminescence Cell-Based Dose Confirmation HTS to Identify Inhibitors of Platelet Dense Granule Release. [Related pubchem assays: 1663 (Primary HTS), 1678 (Summary of Project)]. Type of series: functional.
Series [2] addresses Dual specificity tyrosine-phosphorylation-regulated kinase 1A (Rattus norvegicus, UniProt Q63470). Type of series: biochemical, Homo sapiens.
Series [3] has as its target Luciferin 4-monooxygenase (Photinus pyralis, UniProt P08659). Put plainly: inhibition of purified Photinus pyralis luciferase – biochemical, luminescence, dose response (AID 1891).
The target of series [4] is Glucose-6-phosphate 1-dehydrogenase (Homo sapiens, UniProt P11413). In words: inhibition of Homo sapiens G6PD, dose series – biochemical, fluorescence, selectivity assay for P. falciparum G6PD inhibitor project, dose response (AID 504792). The series is classed as functional.
Sequence of Glucose-6-phosphate 1-dehydrogenase (P11413 whole entry): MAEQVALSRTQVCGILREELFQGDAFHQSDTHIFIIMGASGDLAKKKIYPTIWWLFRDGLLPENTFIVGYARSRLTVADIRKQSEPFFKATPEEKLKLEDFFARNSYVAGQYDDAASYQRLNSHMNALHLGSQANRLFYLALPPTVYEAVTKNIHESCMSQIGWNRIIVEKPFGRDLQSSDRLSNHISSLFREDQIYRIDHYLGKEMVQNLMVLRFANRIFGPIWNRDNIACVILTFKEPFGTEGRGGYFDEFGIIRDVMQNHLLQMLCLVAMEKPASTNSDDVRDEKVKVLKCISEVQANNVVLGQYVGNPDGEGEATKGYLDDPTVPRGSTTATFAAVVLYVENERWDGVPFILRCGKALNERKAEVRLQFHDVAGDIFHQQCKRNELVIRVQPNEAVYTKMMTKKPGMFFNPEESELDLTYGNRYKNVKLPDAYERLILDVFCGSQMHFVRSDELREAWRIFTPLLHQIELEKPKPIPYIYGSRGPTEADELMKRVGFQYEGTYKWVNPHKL
Another series has as its target Cytochrome P450 2D6 (Homo sapiens, UniProt P10635).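 Note: CYP2D6 member of a cytochrome P450 panel assay.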
Series [5] has as its target T1, Cytochrome P450 2C9 (Homo sapiens, UniProt P11712).
The next series deals with Vero. Put plainly: cells. Type of series: functional. Conditions: Chlorocebus sabaeus.
Another series concerns the target Cytochrome P450 2C19 (Homo sapiens, UniProt P33261). Put plainly: Cytochrome panel assay with activity outcomes. Panel member name: p450-cyp2c19 Compounds with AC50 equal or less than 10 uM are considered active. The series is classed as functional.
A further series has as its target T2, Cytochrome P450 1A2 (Homo sapiens, UniProt P05177).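 Note: PubChem cytochrome P450 panel assay, CYP1A2 panel member.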
T2 sequence (P05177 whole entry): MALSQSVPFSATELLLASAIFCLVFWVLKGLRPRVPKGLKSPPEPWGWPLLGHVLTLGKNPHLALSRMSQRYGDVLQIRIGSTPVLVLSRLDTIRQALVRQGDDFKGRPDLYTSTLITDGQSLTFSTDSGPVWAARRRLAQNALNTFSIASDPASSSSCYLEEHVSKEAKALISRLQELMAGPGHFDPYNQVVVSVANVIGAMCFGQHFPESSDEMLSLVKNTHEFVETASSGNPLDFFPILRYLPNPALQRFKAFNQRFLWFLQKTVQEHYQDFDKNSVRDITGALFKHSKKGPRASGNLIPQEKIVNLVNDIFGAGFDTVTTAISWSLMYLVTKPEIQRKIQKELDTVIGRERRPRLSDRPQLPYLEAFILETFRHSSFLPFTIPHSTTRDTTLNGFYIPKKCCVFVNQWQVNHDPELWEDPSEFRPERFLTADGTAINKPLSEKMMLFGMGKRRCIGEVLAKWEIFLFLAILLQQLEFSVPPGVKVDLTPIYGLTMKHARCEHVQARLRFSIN

In series [6] the target is T1, Cytochrome P450 2C9. This is another data set of the same source.
For series [7], the target named is T3, Cytochrome P450 3A4 (Homo sapiens, UniProt P08684).
T3 sequence (P08684 whole entry): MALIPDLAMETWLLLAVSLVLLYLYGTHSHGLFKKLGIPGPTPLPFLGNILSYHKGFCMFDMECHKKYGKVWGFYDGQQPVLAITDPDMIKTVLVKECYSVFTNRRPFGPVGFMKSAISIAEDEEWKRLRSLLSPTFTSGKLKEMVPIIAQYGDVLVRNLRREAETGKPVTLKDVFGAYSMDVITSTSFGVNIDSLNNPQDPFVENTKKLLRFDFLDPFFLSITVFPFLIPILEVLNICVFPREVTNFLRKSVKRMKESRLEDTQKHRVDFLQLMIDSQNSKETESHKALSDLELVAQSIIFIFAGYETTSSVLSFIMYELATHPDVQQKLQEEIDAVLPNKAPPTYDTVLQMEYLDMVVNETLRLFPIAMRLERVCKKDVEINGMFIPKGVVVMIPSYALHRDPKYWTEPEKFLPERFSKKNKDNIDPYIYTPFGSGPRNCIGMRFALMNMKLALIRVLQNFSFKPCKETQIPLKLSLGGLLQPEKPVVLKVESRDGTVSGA
In another series the target is Genome polyprotein (dengue virus type 2, UniProt P29990). In words: flavivirus cap methylation enzyme inhibition – biochemical, confirmation dose response, primary screen (AID 588689). The series is classed as functional.
Series [8] in a line: blockade of melanocortin 4 receptor signaling – cell-based, plate reader, cherry pick, counter-screen for LGR2 antagonist project, dose response (AID 743444).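 Note: transfected HEK 293 cells stimulated with alpha-MSH peptide; potency of inhibitors of the alpha-MSH evoked signal.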 Type of series: functional.
Series [9] can be described thus: toxicity toward HepG2 liver cells – cell-based, plate reader, cherry-pick, antagonist series, cytotoxicity control, dose response (AID 743416). Type of series: functional.
The nature of series [10]: A549 cell cytotoxicity, dose response, cytotoxicity control, plate reader, cherry-pick, antagonist series (AID 743412). The series is classed as functional, cell-based.
A short description of series [11]: blockers of bursicon-stimulated LGR2 cAMP reporter – cell-based, HEK293, CRE-luciferase reporter, cherry pick, set 2, dose response (AID 743343).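 Note: transfected cells were stimulated with diluted bursicon conditioned medium after compound addition.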 The series is classed as functional.
The target in series [12] is T4, Mannose-6-phosphate isomerase (Homo sapiens, UniProt P34949).
T4 sequence (P34949 whole entry): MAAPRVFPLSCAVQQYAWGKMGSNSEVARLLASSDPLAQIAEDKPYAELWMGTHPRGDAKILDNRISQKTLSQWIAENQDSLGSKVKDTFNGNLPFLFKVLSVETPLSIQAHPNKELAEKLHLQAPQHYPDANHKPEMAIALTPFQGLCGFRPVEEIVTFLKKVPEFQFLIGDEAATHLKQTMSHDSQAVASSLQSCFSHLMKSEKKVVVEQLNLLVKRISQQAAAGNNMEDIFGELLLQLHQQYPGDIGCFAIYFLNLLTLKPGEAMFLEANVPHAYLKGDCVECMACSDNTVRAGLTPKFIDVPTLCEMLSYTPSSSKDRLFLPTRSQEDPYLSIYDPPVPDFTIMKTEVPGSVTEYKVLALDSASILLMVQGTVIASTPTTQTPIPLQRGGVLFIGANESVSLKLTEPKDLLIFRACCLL
In words: MPI inhibition at elevated mannose 6-phosphate – biochemical, fluorescence intensity, high mannose 6-phosphate, primary screen (AID 1220).

Another series relates to Streptococcus. In words: GAS UMAA2166 growth inhibition – luminescence, BacTiterGlo, counter-screen for streptokinase expression inhibitor project, dose response (AID 1915).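 Note: potency for reduction of bacterial viability or growth.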 Type of series: functional, organism-based.
Another series has as its target T5, Streptokinase A (Streptococcus pyogenes serotype M1, UniProt P10520).
T5 sequence (P10520 whole entry): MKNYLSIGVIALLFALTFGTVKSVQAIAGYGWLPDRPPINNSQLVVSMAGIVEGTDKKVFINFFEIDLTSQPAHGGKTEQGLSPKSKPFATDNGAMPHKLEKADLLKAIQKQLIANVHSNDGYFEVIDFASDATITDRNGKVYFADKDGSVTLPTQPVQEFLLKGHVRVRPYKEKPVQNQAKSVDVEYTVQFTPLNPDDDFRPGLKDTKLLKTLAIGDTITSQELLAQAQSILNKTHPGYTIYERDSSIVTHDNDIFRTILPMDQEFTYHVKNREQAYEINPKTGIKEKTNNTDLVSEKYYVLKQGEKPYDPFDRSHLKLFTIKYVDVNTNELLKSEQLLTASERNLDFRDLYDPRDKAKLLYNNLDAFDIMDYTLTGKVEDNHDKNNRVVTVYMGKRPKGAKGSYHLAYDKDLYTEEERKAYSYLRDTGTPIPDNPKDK
Put plainly: viability-normalized secreted streptokinase activity reduction – plasminogen activation absorbance, OD405, dose response (AID 1914).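 Note: secreted streptokinase activity via plasminogen activation per viability signal from cell pellet.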 Type of series: functional, Streptococcus pyogenes M1 GAS.

Series [13] concerns Streptococcus sp. 'group A'. Put plainly: Streptococcus pyogenes SK(-)GAS viability under kanamycin – luminescence, BacTiterGlo, confirmation, counter-screen for streptokinase expression inhibitor project, dose response (AID 1900). The series is classed as functional, organism-based.
Series [14] is described as follows: microbe, parasite or virus in culture. The series is classed as functional. Conditions: Mycobacterium tuberculosis.
For series [15], the target named is T3, Cytochrome P450 3A4. This is another data set of the same source.
The target of series [16] is FAD-linked sulfhydryl oxidase ALR (Homo sapiens, UniProt P55789). In words: ALR-catalysed DTT oxidation blockers – biochemical, H2O2 detection, luminescence, cherry-pick, dose response (AID 493248).
Sequence of FAD-linked sulfhydryl oxidase ALR (P55789 whole entry): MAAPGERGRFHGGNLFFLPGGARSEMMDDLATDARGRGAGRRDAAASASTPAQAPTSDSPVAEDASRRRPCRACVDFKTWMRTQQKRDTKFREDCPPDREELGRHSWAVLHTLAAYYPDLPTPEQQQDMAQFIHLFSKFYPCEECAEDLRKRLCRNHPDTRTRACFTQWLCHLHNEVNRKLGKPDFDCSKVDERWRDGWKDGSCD
A further series concerns the target Fatty acid synthase (Homo sapiens, UniProt P49327). In words: inhibition of human FAS-TE enzyme activity – biochemical, kinetic fluorescence intensity, dose response (AID 624326).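 Note: rate of fluorescence rise from hydrolysis of a fluorogenic O-methyl fluorescein ester substrate.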 Type of series: functional.
Series [17] addresses Disintegrin and metalloproteinase domain-containing protein 17 (Homo sapiens, UniProt P78536). Put plainly: exosite inhibitors of ADAM17, dose response, biochemical (AID 743260).
Series [18] can be described thus: Luminescence Cell-Based Dose Response HTS to Identify Activators of Luciferase Translation or Activity in H4 […] Cells. [Related pubchem assays: 1829 (Project Summary), 1814 (Primary HTS)]. Type of series: functional.
The nature of series [19]: Luminescence Cell-Based Dose Confirmation HTS to Identify Activators of 5'UTR Stem-Loop Driven Alpha-Synuclein mRNA Translation in H4 Neuroglioblastoma Cells. [Related pubchem assays: 1829 (Project Summary), 1814 (Primary HTS)]. Type of series: functional.
For a further series, the system named is H4. Put plainly: Luminescence Cell-Based Dose Response HTS to Identify Activators of 5'UTR Stem-Loop Driven Prion Protein mRNA Translation in H4 Neuroglioblastoma Cells. [Related pubchem assays: 1829 (Project Summary), 1814 (Primary HTS)]. Conditions: Homo sapiens. Type of series: functional.

Active and inactive are the calls of the source.

Sequence of Cytochrome P450 2C19 (P33261 whole entry): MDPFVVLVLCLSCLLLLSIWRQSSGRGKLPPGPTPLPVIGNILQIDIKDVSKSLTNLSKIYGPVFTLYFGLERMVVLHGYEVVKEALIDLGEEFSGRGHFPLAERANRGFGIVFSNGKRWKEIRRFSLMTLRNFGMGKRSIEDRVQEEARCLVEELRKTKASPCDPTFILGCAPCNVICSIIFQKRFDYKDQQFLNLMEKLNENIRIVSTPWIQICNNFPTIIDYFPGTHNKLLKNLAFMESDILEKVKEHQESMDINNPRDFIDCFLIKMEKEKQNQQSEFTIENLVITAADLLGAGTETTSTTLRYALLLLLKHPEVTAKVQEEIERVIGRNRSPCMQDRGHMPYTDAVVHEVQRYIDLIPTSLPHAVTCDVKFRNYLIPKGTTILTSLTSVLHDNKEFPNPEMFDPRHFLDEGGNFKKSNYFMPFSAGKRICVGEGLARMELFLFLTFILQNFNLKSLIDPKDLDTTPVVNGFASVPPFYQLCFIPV
Sequence of Albumin (P02769 whole entry): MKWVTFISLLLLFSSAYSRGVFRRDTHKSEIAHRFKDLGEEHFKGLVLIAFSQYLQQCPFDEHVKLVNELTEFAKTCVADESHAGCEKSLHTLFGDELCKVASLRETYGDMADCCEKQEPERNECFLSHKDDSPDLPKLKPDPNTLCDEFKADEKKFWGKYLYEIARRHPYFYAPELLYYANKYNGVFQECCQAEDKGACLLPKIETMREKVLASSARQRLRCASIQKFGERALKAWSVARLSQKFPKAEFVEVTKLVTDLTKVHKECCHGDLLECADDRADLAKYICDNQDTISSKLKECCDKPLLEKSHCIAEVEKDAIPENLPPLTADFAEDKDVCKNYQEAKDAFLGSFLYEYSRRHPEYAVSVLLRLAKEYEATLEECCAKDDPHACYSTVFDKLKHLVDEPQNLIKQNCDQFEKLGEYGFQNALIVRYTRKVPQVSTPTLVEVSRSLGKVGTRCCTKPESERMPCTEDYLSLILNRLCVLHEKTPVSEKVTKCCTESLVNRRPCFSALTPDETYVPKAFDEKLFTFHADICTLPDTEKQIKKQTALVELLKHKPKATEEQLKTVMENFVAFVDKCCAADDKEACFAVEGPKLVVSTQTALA
T1 sequence (P11712 whole entry): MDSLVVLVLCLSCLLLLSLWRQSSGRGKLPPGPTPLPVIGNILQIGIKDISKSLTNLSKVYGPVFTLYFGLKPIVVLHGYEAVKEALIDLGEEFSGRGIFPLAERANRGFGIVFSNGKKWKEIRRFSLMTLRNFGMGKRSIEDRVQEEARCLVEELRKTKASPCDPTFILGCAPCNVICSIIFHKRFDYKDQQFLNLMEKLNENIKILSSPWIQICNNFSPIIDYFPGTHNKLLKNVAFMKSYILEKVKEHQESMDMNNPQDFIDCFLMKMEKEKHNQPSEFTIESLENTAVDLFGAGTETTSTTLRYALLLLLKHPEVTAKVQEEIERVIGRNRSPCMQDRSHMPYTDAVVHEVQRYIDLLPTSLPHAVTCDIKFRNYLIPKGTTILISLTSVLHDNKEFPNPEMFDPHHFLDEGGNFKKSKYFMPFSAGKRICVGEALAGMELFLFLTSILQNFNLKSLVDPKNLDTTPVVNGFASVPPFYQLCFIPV
Sequence of Cytochrome P450 2D6 (P10635 whole entry): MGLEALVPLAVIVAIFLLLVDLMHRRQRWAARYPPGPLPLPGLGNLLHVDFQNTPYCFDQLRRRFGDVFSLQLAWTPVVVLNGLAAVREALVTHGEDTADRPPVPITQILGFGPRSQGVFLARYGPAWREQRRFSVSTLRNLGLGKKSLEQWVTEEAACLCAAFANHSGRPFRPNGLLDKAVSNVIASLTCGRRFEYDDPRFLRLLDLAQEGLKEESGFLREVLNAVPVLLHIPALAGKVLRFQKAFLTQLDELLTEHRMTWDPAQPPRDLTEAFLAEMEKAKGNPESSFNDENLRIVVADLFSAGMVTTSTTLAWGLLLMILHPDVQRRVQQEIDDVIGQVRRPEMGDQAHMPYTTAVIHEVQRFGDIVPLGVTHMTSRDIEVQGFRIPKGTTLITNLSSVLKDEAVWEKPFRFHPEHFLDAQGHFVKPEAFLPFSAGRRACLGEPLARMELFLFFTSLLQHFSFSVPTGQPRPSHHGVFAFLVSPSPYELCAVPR
Sequence of Disintegrin and metalloproteinase domain-containing protein 17 (P78536 whole entry, the tested form may be a part): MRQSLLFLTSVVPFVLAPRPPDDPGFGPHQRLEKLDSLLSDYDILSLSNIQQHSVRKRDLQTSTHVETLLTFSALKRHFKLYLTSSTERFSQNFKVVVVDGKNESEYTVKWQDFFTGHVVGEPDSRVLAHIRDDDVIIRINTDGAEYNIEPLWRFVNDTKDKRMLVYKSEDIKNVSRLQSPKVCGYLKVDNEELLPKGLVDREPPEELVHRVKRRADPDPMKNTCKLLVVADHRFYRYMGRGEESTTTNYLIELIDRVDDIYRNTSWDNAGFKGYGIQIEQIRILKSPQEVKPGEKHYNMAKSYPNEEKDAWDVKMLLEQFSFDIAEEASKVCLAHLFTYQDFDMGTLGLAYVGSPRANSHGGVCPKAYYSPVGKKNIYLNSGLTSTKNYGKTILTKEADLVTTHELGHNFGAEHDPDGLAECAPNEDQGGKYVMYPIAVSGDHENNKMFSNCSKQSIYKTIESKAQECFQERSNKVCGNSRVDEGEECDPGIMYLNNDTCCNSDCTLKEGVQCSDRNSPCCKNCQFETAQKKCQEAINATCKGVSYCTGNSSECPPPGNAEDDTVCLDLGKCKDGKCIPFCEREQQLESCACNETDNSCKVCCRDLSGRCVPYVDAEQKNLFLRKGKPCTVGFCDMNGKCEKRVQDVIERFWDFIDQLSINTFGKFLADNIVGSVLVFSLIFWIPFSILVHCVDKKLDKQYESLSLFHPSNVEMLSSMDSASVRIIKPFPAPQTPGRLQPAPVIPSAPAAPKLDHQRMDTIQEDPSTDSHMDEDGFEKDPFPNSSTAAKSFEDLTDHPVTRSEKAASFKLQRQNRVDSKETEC
Sequence of Luciferin 4-monooxygenase (P08659 whole entry): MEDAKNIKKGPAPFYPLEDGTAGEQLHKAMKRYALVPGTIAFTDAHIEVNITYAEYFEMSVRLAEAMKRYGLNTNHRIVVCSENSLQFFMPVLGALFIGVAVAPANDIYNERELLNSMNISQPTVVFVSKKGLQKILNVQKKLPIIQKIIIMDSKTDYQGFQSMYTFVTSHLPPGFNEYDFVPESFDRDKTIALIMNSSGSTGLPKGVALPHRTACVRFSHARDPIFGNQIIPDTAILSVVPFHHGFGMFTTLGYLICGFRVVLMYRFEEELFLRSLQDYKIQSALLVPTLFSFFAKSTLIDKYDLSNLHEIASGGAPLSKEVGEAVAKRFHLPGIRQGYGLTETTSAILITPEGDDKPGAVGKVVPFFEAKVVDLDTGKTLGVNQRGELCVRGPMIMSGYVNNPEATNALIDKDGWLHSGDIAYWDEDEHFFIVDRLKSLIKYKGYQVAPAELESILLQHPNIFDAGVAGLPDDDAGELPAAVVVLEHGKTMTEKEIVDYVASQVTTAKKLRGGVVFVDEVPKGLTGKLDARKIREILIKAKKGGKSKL

The term IC50 denotes the concentration that inhibits the measured activity by half. For `Cc1noc(C)c1COc1ccc(C(=O)NNC(=O)c2ccccc2O)cc1`, the IC50 at Albumin was > 94.1 µM (inactive).
As a reminder, the EC50 is the concentration that produces a half-maximal response. As usually defined, the AC50 is the midpoint of the concentration-response curve, whichever way the signal moves. `O=C(c1ccccc1)c1ccc2cc(O)ccc2c1`: the EC50 in series [1] was 7.74 µM (active); in [3], 0.752 µM (active). The AC50 in series [2] was 9.25 µM (active).
For `Cc1no[n+]([O-])c1COc1cccc(/C=N/Nc2nncn2N)c1`, in series [4], the IC50 was 58.7 µM (inactive).
`CSc1ccc(S(=O)(=O)Nc2ccc3c4c(cccc24)CC3)cc1`: the AC50 at Cytochrome P450 2D6 was 14.1 µM (inconclusive); at Cytochrome P450 2C9 [5], “inconclusive”.
With `O=C1N(c2ccccc2C(F)(F)F)O[C@@]1(c1ccccc1)C1CCCCC1`, the CC50 in the series on Vero is > 25 µM (active).
On to `Cc1ccc(NN=C2C(=O)NC(=O)NC2=O)c([N+](=O)[O-])c1`, for which the AC50 result at Cytochrome P450 2C19 was “inconclusive”; on Cytochrome P450 1A2, 17.8 µM (inconclusive); on Cytochrome P450 2C9 [5], “inconclusive”.
`CCCCCCCCCCC/C=C\C(C)(C)/C=C\CCCC(=O)O`: the concentration at half-maximal activity (AC50) was 25.1 µM (inconclusive) at Cytochrome P450 2C19 (read-out: AC50), 15.8 µM (inconclusive) at Cytochrome P450 2C9 [6] and “inconclusive” on Cytochrome P450 3A4 [7].
For the molecule `CN1CC[C@@]2(C)c3cc(O)ccc3N(C)[C@@H]12`, the values for the IC50 (at Genome polyprotein; in [4]) were 22.4 µM (active) and 42.6 µM (inactive), respectively.
Turning to `COc1ccc2nc(NC(=O)c3ccccc3F)sc2c1`, the AC50 is 27.2 µM (active) in [8], > 52 µM (inactive) in [9], > 52 µM (inactive) in [10] and 19.9 µM (active) in series [11].
As to `CCN(CC)c1ccc(NC(=O)c2ccccc2Br)cc1S(=O)(=O)Nc1ccccc1OC`, the IC50 in [4] was > 80 µM (inactive); in series [12], 43.7 µM (active).
For the molecule `COc1ccc(CC(=O)N/N=C/c2cc([N+](=O)[O-])cc(Br)c2O)cc1`, the EC50 in the series with Streptococcus is 6.89 µM (active); on Streptokinase A, > 150 µM (not active); in [13], 3.53 µM (active). The IC50 on Albumin was > 94.1 µM (inactive).
As for `CN1CCN(c2ncc3nc(-c4ccc(F)cc4)c(=O)n(Cc4cccs4)c3n2)CC1`, the AC50 is 31.6 µM (inconclusive) on Cytochrome P450 2C19 (read-out: AC50), 0.0126 µM (inconclusive) at Cytochrome P450 2C9 [6], 25.1 µM (inconclusive) at Cytochrome P450 1A2 and “inconclusive” on Cytochrome P450 3A4 [7].
For the molecule `NNC(=O)CN1C(c2ccccc2Br)=Nc2ccc(Br)cc2C1c1ccccc1` (stereo not given), in [4], the IC50 is 15.3 µM (active).
Turning to `COc1cccc(NC(=O)Nc2nc(SC(C)(C)C)ns2)c1`, the EC50 in the series with Streptococcus is > 50 µM (not active); at Streptokinase A, 9.69 µM (active); in [13] it was 9.49 µM (active). Besides, the CC50 is 7.41 µM (active) in the series with Vero and 7.82 µM (active) in series [14].
As to `CNc1oc(-c2cccs2)nc1C#N`, the AC50 on Cytochrome P450 3A4 [15] was 28.2 µM (inconclusive); on Cytochrome P450 2C9 [5] it was “inconclusive”.
With `O=S(=O)(c1ccc(-c2csc(-c3cccnc3)n2)cc1)N1CCCC1`, in series [16], the concentration at half-maximal activity (AC50) was 0.268 µM (active). Further, the IC50 on Fatty acid synthase was 1.62 µM (active).
Take `CCCCn1c(SCC(=O)NC(C)(C)C)nnc1-c1ccco1`: the half-maximal activity concentration (AC50) at Cytochrome P450 2D6 is 12.6 µM (inconclusive); on Cytochrome P450 2C9 [6], 0.0398 µM (inconclusive); on Cytochrome P450 1A2, 0.316 µM (inconclusive); on Cytochrome P450 3A4 [7] it was “inconclusive”.
For `O=C(c1cnccn1)N1CCC2(CC1)CCN(c1ccccc1)CC2`, the AC50 entry on Cytochrome P450 3A4 [7] is on record as “inconclusive”.
On to `O=C(CCl)NNC(=O)c1c(O)c2ccccc2[nH]c1=O`, for which, on Albumin, the IC50 was > 94 µM (inactive).
As for `C/C(=N\N=C(/N)SC1CC(=O)N(c2ccc(Br)cc2)C1=O)c1cccs1` (stereo not given), the EC50 in the series on Streptococcus was 19.1 µM (active); at Streptokinase A, 9.08 µM (active); in [13], 6.72 µM (active). Moreover, the IC50 in series [17] is > 69.5 µM (inactive).
As for `Fc1cccc(/C=N/Nc2[nH]cnc3ncnc2-3)c1`, the figures for the EC50 (in series [18]; in series [19]; with H4) were 40.8 µM (active), > 120 µM (not active) and > 120 µM (not active), respectively. Also, the AC50 in series [2] is 10.1 µM (active).
For `CC1(OC(=O)C2CCCC2)C(=O)C=C2C=C(c3ccsc3)N(CCc3c[nH]c4ccccc34)C=C2C1=O` (stereo not given), in series [4], the IC50 is 49.6 µM (inactive).
